Experimental data taken from ChEMBL document CHEMBL5465560, “Selectivity Literature for EUbOPEN Chemogenomic Library” (2024).

Legend:
[1] = molecular target: T1, Phosphatidylinositol 3-kinase C2 domain-containing subunit gamma (Homo sapiens) (UniProt O75747); assay: Selectivity interaction (KinomeScan (DiscoverX)) EUB0000229b PIK3C2G; conditions: at 10 µM
T1 sequence (whole entry): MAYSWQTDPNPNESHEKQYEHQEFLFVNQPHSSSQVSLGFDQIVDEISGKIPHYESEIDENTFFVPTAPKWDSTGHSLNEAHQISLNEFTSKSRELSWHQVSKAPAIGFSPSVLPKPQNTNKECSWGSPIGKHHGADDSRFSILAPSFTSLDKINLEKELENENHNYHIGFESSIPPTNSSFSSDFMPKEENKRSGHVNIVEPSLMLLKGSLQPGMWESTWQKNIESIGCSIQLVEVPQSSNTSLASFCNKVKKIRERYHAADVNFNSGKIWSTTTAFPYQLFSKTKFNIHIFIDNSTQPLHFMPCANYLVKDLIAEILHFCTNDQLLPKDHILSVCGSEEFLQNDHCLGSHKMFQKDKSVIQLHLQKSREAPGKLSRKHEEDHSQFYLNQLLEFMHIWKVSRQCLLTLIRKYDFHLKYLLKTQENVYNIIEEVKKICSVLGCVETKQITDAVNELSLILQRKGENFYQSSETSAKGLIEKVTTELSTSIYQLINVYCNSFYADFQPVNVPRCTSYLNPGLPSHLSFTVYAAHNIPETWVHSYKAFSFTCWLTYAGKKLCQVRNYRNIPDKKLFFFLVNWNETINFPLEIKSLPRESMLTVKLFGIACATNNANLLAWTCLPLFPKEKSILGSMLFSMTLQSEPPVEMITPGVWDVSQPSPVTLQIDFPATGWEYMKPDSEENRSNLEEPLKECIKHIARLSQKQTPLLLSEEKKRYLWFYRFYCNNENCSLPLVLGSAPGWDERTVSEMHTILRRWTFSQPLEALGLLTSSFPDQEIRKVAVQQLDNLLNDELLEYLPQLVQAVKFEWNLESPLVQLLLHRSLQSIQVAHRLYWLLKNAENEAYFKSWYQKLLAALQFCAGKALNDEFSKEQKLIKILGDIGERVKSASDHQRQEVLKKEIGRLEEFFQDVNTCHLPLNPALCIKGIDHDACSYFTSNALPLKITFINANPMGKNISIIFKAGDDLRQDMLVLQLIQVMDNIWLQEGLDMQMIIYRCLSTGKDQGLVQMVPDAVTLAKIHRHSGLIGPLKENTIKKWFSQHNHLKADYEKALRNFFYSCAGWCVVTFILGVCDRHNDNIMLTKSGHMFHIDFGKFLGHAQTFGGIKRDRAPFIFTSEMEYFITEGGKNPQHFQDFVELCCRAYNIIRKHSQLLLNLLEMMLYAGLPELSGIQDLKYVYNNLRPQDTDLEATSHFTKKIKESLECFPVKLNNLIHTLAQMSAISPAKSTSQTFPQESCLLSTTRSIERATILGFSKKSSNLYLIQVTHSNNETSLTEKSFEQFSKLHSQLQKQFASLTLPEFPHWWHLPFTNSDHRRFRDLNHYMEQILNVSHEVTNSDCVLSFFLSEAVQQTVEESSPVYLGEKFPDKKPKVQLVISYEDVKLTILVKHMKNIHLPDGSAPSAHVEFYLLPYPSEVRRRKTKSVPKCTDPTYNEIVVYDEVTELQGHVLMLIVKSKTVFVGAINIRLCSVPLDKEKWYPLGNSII

[2] = molecular target: Tyrosine-protein kinase Fer (Homo sapiens) (UniProt P16591); assay: Selectivity interaction (Upstate Kinase Profiler service (Millipore)) EUB0000056c FER; conditions: at 1 µM
[3] = molecular target: Muscarinic acetylcholine receptor M4 (Homo sapiens) (UniProt P08173); assay: Selectivity interaction (GPCR panel (PDSP screen)) EUB0001079a CHRM4; conditions: at 10 µM
[4] = system: Receptor-type tyrosine-protein kinase FLT3 (Homo sapiens), P36888 [UNDEFINED MUTATION]; conditions: at 10 µM
[5] = molecular target: T2, Serine/threonine-protein kinase 3 (Homo sapiens) (UniProt Q13188); assay: Selectivity interaction (ActivX KiNativ screen (kinase selectivity in THP-1 cell lysates)) EUB0000639a STK3; format: subcellular; conditions: lysate, at 0.04 µM
T2 sequence (whole entry): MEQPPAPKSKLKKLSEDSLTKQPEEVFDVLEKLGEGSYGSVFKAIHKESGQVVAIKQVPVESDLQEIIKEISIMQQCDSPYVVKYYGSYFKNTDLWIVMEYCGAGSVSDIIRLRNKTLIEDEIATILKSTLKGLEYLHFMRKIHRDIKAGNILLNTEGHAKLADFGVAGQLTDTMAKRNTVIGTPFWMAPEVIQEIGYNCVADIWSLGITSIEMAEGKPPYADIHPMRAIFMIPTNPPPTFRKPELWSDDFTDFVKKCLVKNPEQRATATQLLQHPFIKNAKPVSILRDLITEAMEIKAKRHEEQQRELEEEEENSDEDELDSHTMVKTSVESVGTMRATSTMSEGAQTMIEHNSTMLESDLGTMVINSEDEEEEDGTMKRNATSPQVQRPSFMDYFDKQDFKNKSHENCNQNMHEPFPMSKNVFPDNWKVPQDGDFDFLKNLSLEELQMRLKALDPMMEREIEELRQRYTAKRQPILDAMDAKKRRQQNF

[6] = molecular target: Adenosine receptor A1 (Homo sapiens) (UniProt P30542); assay: Selectivity interaction (Eurofins CEREP Diversity Profile (receptors and ion channels)) EUB0000279b ADORA1; conditions: at 10 µM
Adenosine receptor A1 (Homo sapiens), sequence (P30542 whole entry): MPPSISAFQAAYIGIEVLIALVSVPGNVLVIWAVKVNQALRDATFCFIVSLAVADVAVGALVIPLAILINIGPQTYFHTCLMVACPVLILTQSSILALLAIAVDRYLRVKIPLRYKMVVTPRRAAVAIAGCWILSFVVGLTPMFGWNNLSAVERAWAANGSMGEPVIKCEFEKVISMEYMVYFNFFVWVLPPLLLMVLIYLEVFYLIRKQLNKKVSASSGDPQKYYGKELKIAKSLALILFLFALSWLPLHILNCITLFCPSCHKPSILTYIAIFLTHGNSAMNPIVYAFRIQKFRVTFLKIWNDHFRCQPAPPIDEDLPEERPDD

Tyrosine-protein kinase Fer (Homo sapiens), sequence (P16591 whole entry, looked up): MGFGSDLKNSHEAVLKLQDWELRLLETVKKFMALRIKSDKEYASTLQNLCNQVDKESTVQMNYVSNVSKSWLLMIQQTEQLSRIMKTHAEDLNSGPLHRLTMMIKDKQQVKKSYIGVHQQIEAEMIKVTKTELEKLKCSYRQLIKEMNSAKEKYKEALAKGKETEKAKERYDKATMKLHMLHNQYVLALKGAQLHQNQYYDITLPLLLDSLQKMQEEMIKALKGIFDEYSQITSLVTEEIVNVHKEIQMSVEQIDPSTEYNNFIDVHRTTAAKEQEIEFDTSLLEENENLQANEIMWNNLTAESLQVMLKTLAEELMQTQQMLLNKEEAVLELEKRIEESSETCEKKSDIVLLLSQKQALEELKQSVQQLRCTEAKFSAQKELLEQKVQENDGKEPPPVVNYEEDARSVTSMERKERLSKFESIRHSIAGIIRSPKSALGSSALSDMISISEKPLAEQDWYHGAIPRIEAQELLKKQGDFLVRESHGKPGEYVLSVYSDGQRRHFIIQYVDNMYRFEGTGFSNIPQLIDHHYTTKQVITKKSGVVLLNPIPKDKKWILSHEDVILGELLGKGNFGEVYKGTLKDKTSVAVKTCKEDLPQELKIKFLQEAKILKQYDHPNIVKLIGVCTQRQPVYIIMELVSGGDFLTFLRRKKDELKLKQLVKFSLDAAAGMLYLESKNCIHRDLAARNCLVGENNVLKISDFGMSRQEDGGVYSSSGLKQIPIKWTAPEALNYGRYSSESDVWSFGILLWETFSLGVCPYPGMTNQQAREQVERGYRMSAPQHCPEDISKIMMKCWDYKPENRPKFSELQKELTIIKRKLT
Muscarinic acetylcholine receptor M4 (Homo sapiens), sequence (P08173 whole entry): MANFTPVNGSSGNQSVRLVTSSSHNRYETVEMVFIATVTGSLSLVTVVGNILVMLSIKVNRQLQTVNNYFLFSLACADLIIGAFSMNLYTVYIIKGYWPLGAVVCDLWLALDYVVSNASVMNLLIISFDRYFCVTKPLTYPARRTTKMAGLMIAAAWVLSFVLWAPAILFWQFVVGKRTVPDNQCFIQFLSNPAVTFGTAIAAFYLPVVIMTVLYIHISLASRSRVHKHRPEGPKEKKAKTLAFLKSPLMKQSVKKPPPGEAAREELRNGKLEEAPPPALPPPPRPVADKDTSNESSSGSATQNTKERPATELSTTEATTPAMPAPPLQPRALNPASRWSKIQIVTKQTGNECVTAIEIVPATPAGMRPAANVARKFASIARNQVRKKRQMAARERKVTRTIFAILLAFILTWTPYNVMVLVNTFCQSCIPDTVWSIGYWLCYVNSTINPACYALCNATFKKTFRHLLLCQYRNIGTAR
Receptor-type tyrosine-protein kinase FLT3 (Homo sapiens), P36888 [UNDEFINED MUTATION], sequence (P36888 whole entry, looked up, change not shown): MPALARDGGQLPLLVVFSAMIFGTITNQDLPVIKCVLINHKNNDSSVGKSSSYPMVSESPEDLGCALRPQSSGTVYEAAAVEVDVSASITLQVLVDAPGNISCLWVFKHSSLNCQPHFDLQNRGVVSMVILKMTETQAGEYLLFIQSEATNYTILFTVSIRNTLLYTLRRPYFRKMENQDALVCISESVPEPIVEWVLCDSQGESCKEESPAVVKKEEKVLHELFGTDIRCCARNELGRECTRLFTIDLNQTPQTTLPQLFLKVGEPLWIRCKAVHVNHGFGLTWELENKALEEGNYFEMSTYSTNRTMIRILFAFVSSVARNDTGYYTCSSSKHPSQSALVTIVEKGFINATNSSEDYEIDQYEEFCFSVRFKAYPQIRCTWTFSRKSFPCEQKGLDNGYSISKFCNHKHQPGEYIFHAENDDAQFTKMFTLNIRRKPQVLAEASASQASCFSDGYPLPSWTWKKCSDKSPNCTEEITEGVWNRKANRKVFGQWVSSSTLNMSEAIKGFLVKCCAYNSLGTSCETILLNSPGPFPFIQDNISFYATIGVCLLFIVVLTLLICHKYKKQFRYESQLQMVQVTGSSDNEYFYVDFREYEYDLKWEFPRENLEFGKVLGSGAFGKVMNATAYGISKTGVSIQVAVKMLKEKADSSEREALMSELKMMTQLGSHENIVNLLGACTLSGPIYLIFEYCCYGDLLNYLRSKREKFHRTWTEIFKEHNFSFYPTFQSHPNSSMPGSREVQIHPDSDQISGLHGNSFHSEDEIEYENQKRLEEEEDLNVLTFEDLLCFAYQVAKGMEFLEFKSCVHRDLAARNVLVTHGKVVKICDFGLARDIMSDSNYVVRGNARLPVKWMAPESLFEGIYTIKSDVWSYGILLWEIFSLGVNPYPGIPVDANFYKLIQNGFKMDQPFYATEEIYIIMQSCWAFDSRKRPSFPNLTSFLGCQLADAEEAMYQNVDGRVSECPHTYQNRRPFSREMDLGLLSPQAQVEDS

Compound `COc1cc(N(C)c2ccnc3ccc(C(F)(F)F)cc23)cc(OC)c1OC` has a % binding [1] of 75%.
`Cc1ccc(-c2ccc3c(ccc4sc5c(c43)NC[C@@H](C)NC5=O)n2)cn1` was tested, and the % of inhibition [2] was 11%.
In the case of `Nc1cnc(N2CCc3cc(S(=O)(=O)Nc4c(F)cc(Cl)cc4F)cc(N4CCCC4=O)c32)nc1` [TP-020n], the % of inhibition [3] is reported as 9.99%.
`Cc1cc([C@@H](C)Nc2ccccc2C(=O)O)c2nc(N3CCOCC3)cc(=O)n2c1` [AZD-6482] gave a % of control [4] of 53%.
`CC[C@@H]1[C@H](F)C(=O)N[C@@H]1COc1nccc2cc(C(N)=O)c(OC)cc12` [ZIMLOVISERTIB] showed a % of inhibition [5] of 2.2%.
In the case of `CC(=O)c1cc(-c2ccccc2OCC2CC2)c2ncccn12`, the % of control [6] is reported as 35%.
